| Compound | melting point |
| --- | --- |
| COC(=O)C(C)C(=O)Nc1ccc(OCc2cccc(F)c2)cc1 (configuration not stated) | 119 °C |
| CC1(C)CCC(Cc2ccc(Cl)cc2)C1(O)Cn1ncnc1S (configuration not stated) | 179 to 180 °C |
| CC1=C(C(=O)OCCCN(C)Cc2ccccc2)C(c2ccccc2C(F)(F)F)c2c(ccnc2OC(C)C)N1 (configuration not stated) | 143 to 144 °C |
| COc1ccnc(Cl)c1NS(=O)(=O)c1nc2cc(F)nc(OC)n2n1 | 187 to 188 °C |
| CCCCCCOc1ccc(CCCCCCCCC(=O)NO)cc1 | 94 to 96 °C |
| CCCCOc1ccc2nc(C(=O)NCC(=O)O)c(O)cc2c1 | 180 to 182 °C |
| CCOC(=O)C(C(=O)OCC)C(=O)C(C)Oc1cc(Cl)c(Cl)cc1Cl (configuration not stated) | 62 to 66 °C |
| CNC(=O)c1[nH]c2ccccc2c1Sc1ccccc1 | 201 to 204 °C |
| COc1cc2c(cc1Br)-c1c(-c3cccs3)c3c(n1CC2)C(=O)N(C(C)C)CCNC3 | 201 to 203 °C |
| C#CCn1c(-c2ccccc2)nc(C=C)c(CC)c1=O | 113 to 115 °C |
| COc1cc(Cc2nccc3c(OCc4ccccc4)cc(OCc4ccccc4)cc23)cc(OC)c1OC | 158 to 160 °C |
| CCc1cc(-c2ccc(-c3cc[nH]n3)cc2)ccc1OC | 164 to 168 °C |
| Nc1nnc(-c2ccc(C(F)(F)F)cc2)n1-c1cc(Cl)ccc1O | 147 to 155 °C |
| CNC(=O)CCN1CCC(C(O)(c2ccc(F)cc2)c2ccc(F)cc2)CC1 | 127 to 129 °C |
| CCc1nn(CCO)c(CC)c1Cc1cc(C#N)cc(C#N)c1 | 115 to 117 °C |
| C[C@@H]1Cc2ccsc2[C@H](C)N1CCCNS(=O)(=O)c1ccc(N)cc1 (relative stereo) | 134 to 138 °C |
| O=C(Nc1ccncc1)c1ccc(C2=NCCN2)cc1 | > 250 °C |
| CNS(=O)(=O)OCC(=O)N(c1c(C)ccc2ccccc12)C1CCOC1=O (configuration not stated) | 190 to 194 °C |
| Cc1cc2oc(=O)c3c(c2cc1C)CCN(CCN1CC2CCC(CC2)C1)C3 | 174 to 175 °C |
| Cc1c(NC(=O)c2ccc(OC[C@@H]3CCCO3)cc2F)ccc2cc(CNCC(C)C)cnc12 | 133 to 134 °C |
| CC(=O)N[C@@H]1c2ccccc2C[C@@H]1C (relative stereo) | 146 to 147 °C |
| Cc1cc(CCl)nc(Nc2ccccc2)n1 | 100 to 101 °C |
| CC(C)c1ccc(-c2c(Cl)c(CCl)nc3sc4c(c23)CCN(Cc2ccccc2)C4)cc1 | 190 to 192 °C |
| CC1NC(=O)OC1c1ccc(C(F)(F)F)cc1 (configuration not stated) | 158 to 159 °C |
| COc1ccc(N2CCOCC2)c2sc(NC(=O)N(C)[C@H]3CC[C@@H](OC)CC3)nc12 | 198 to 200 °C |

| Compound | melting point |
| --- | --- |
| COc1ccc(OC)c(-c2cn(C)cc(C#N)c2=O)c1 | 209 to 211 °C |
| CN=C(N)Nc1nc(-c2cccc(C(=O)NC)c2)cs1 | 111 to 113 °C |
| CCCCOc1cc(C)c(N=Nc2ccccc2)c(C)c1 | 47 to 47.5 °C |
| CC1=CC2(C)CC3CCCC(C)(C2=O)C13 (configuration not stated) | 46 to 47 °C |
| Cc1ccc(S(=O)(=O)C(CCl)Sc2cccc(C)c2)cc1 (configuration not stated) | 80 to 97 °C |
| Cc1ncnn1-c1ccc(N)cc1 | 145 °C |
| CNC(=S)NCCSCc1nscc1Br | 62 to 63 °C |
| CO[C@H]1CC[C@H](N(C)C(=O)c2ccc3nonc3c2)CC1 | 143 to 144 °C |
| O=C(O)COc1cc2c(-c3ccc(Cl)cc3)csc2c(Cl)c1Cl | 206 to 208 °C |
| COc1ccc([C@H]2[C@@H](c3ccccc3)C2(Cl)Cl)cc1 (relative stereo) | 59 to 60 °C |
| CN1CCC(OC2c3ccccc3C(=O)N2c2ccc3ccc(Cl)nc3n2)CC1 (configuration not stated) | 204 °C |
| OC1CSC(Oc2ccc(-c3ccco3)cc2)C(O)C1O (configuration not stated) | 200 °C |
| CSc1nc2nsc(N)c2s1 | 160 to 166 °C |
| Cc1cc2cc(CN3CCCCCC3)cnc2cc1NC(=O)c1ccc(-c2ccc(Cl)cc2)cc1F | 209 °C |
| O=C(Nc1nc(C2CC2)no1)C1c2ccccc2Oc2ccccc21 | 275 °C |
| C[C@H]1CN(c2cc3c(cc2F)c(=O)c(C(=O)O)cn3C2CC2)C[C@H]1N (relative stereo) | 268 to 270 °C |
| COc1ccc(C(=O)N2CC3CC2C(=O)O3)cc1OC (configuration not stated) | 132 °C |
| NC(Cc1ccccc1)C(O)C1=NCCS1 (mixture of isomers) | 82.3 to 90 °C |
| CCOP(=S)(OCC)OC(=O)/C(=N\OC(C)=O)c1csc(N)n1 | 128 to 130 °C |
| O=C(Nc1ccc(-c2nc3ccccc3s2)cc1)C(Cl)Cl | 223 to 225 °C |
| COC(=O)c1ccccc1S(=O)(=O)N1CCC[C@H]1C(=O)N[C@@H](Cc1ccccc1)C(=O)O | 163 to 165 °C |
| COc1cc(C(=O)N2CCN(C(=O)C3=Cc4cc(C)c(C)cc4OCC3)CC2)cc(OC)c1OC | 177 to 178 °C |
| CCCCNC(=O)c1cc(-c2csc(-c3ccc([N+](=O)[O-])cc3)n2)n(CC2CCCCC2)c1C | 184 to 187 °C |
| CC(N)=CC(=O)OCC(C)(C)CN(C)Cc1ccccc1 | 68 to 70 °C |
| COc1ccc(C2Cc3ccccc3-c3nc(N)c4ccccc4c32)c(OC)c1OC (configuration not stated) | 283 °C |

| Compound | melting point |
| --- | --- |
| Cc1oc(-c2ccccc2)nc1COc1cccc(CCCC2SC(=O)NC2=O)c1 (configuration not stated) | 123 to 124 °C |
| COc1cccc(C=O)c1Oc1ccc([N+](=O)[O-])cc1 | 130 to 131 °C |
| CNC(=O)[C@@H]1C[C@@H](Oc2ccccc2)CN1S(=O)(=O)c1ccc(Cl)c(COc2cccc3c(-n4ccnc4)cc(C)nc23)c1Cl | 97 °C |
| NCCN1CCN(c2ncc3ncnc(Nc4ccc(F)c(Cl)c4)c3n2)CC1 | 175 to 180 °C |
| CCSc1ccc(Cl)nc1C#N | 79 to 81 °C |
| NS(=O)(=O)c1ccc(-c2ccc(F)cc2F)cc1 | 143 °C |
| Cc1cc(Nc2c(C#N)cnc3cc(-c4csc(C5OCCO5)c4)ccc23)ccc1OCc1ccccn1 | 194 to 196 °C |
| CNc1nc(-c2ccccc2)c(-c2nc3ccccc3c(=O)n2-c2ccccc2C)s1 | 220 to 225 °C |
| COC(=O)CCc1cc(S(C)(=O)=O)cc(-c2nc(=O)c3ccc(Cl)cc3s2)n1 | 203 to 204 °C |
| CCOC(=O)c1cc2c(cn1)[nH]c1ccc(N3CCCC3)cc12 | 259 to 261 °C |
| CN(C)CCCN=C1CC(c2ccc(Cl)cc2Cl)Cc2[nH]c3ccc(Cl)cc3c(=O)c21 (configuration not stated) | 168 to 170 °C |
| C=C(c1ccc(-n2cncn2)nc1)C1(c2ccc(F)cc2F)CO1 (configuration not stated) | 120 to 122 °C |
| Cc1cc(NC2CN(C(=O)OCc3ccccc3)CC2O)c2cc(C)c(-c3ccc(Cl)cc3Cl)n2n1 (configuration not stated) | 105 to 110 °C |
| CN(C(=O)Nc1nc(OCC(F)(F)F)cc(OCC(F)(F)F)n1)c1ccc(C(F)(F)F)s1 | 99 to 101 °C |
| CCc1c(OC)nc(OC)nc1C(=O)c1cc(C)cc(C=CC#N)c1 | 165 to 166 °C |
| CC(=O)c1ccc(N2CCCCC2)c(S(N)(=O)=O)c1 | 130 to 132 °C |
| CN1C(C)(C#N)CCC1(C)C#N (configuration not stated) | 81 to 83 °C |
| CC(C)CC(C)(C(=O)NC1CCCCCCCCCCNC1=O)c1ccccc1S (configuration not stated) | 166 to 171 °C |
| CCOC(Cc1ccc(OCCN2CCOc3ccccc32)cc1)C(=O)NC (configuration not stated) | 97 to 99 °C |
| O=C(OCc1ccccc1)N1C[C@@H]2CN(c3ccc(N4C[C@H](CO)OC4=O)cc3)C[C@@H]2C1 | 163 to 164 °C |
| COc1cn2nc(OCCCN3CCC(OC(c4ccccc4)c4ccccc4)CC3)ccc2n1 | 133 to 135 °C |
| Cc1cc(NCC(=O)N(C)c2ccccc2)nc(-c2ccccc2)n1 | 134 to 136 °C |
| CCC(CC)(OC)c1ccc(Cl)c2nc3n(c12)CCCN3c1ccc(Cl)cc1C(F)(F)F | 172 to 173 °C |
| CCC(C)c1ccccc1Sc1c(O)cc(-c2ccccc2)oc1=O (configuration not stated) | 170 to 171 °C |
| Cc1cc2c(NCc3ccc4c(c3)OCO4)nc(-c3ccc(C(=O)O)cc3)nc2s1 | > 250 °C |

| Compound | melting point |
| --- | --- |
| CC(=CN(C)C)C(=O)c1cccc(Cl)c1 | 206 to 208 °C |
| COc1ccc(C2(O)CC=C(c3ccncc3)N(C)C2=O)cc1 (configuration not stated) | 224 to 226 °C |
| CCOC1=C(CCCCCCC(=O)O)C(=O)CC1 | 65 to 66 °C |
| Cc1ccc(Sc2cc3c(cc2Sc2ccc(C)cc2)C(=O)c2c(c(O)c4cc(Sc5ccc(C)cc5)c(Sc5ccc(C)cc5)cc4c2O)C3=O)cc1 | > 265 °C |
| CCOC(=O)Cc1nn(Cc2ccc(Cl)c(Cl)c2)c(=O)c2c(C)cccc12 | 134 to 137 °C |
| CC(=O)NCC1CN(c2cc(F)c(N3CCN(C(=O)OC(C)(C)C)CC3)c(F)c2)C(=O)O1 (configuration not stated) | 177 to 179 °C |
| c1cc2cc(-n3cnnc3)ncc2[nH]1 | 254 to 257 °C |
| N#Cc1c(N2CCN(C(=O)c3ccc(C(F)(F)F)cc3)CC2)c2ccccc2n(Cc2ccc(F)cc2)c1=O | 181 to 185 °C |
| Cc1cc2c(C)cc(-c3ccccc3Cl)nc2nc1-c1ccccc1 | 151 to 153 °C |
| COC(=O)c1cc2c(N3CCN(CCC(C(=O)N4CCCCCC4)c4ccccc4)CC3)cccc2[nH]1 (configuration not stated) | 152 to 168 °C |
| CN(C)C1CCC(c2c[nH]c3ccc(NC(=N)c4cccs4)cc23)CC1 (configuration not stated) | 104 to 106 °C |
| Cc1cc(CN2CCC(N(C)S(=O)(=O)c3ccc(Nc4nccc(Nc5ccc(F)c(C)c5)n4)cc3)CC2)[nH]n1 | 130 °C |
| Cn1nnc2cc(C(O)c3ccccc3)ccc21 (configuration not stated) | 129 °C |
| COc1cc(C=CC(=O)Nc2cnc3ccc(Cl)cc3c2-c2ccccc2C)cc(OC)c1OC(C)=O | 277 to 278 °C |
| COc1cc(OC)nc(NS(=O)(=O)C(C(N)=O)C(C)C)n1 (configuration not stated) | 147 to 150 °C |
| COc1ccc(C2=NNC(=O)CC2c2ccncc2)cc1 (configuration not stated) | 100 to 102 °C |
| COC1CN(C(=O)c2cc(-c3cccc(Cl)c3)c(=O)[nH]c2-c2c(Cl)cccc2C#N)C1 | 239 to 243 °C |
| CCCCCCCCCCOc1cc(C(=O)O)c(OCCCCCCCCCC)cc1C(=O)O | 136 to 137 °C |
| O=C(Nc1nc(OCc2ccc(F)cc2)ncc1F)Oc1ccccc1 | 129 to 131 °C |
| Cc1ccc(Br)c(Cl)c1NS(=O)(=O)c1ccccc1C(=O)O | 238 to 242 °C |
| O=[N+]([O-])c1ccc(OCc2cscn2)cc1 | 175 to 176 °C |
| CCCc1cc2cc(O)ccc2c(Oc2ccc(/C=C/C(=O)O)cc2)c1-c1ccccc1 | 120 to 122 °C |
